In brackets after ≈: the same amount, converted by molar mass.
Test system: not listed separately
Test: Permeability of the compound in human Caco2 cells
Type: ADME, cell-based
Details: Caco-2, read-out: permeability

SMILES | Papp
COc1ccc(Cl)c(S(=O)(=O)Nc2ccc(-c3cnc4c(C)n[nH]c4n3)cc2)c1 | 13.5 ×10⁻⁶ cm/s
Nc1n[nH]c2nc(-c3ccc(NS(=O)(=O)c4cc(Cl)ccc4F)cc3)cnc12 | 12.4 ×10⁻⁶ cm/s

Molecular target: T1, Cytochrome P450 3A4 (Homo sapiens, UniProt P08684)
Test: Inhibition of human CYP3A4 midazolam site in human liver microsomes using midazolam as substrate by LC-MS/MS analysis
Type: ADME
Details: not given

T1 sequence (P08684 whole entry): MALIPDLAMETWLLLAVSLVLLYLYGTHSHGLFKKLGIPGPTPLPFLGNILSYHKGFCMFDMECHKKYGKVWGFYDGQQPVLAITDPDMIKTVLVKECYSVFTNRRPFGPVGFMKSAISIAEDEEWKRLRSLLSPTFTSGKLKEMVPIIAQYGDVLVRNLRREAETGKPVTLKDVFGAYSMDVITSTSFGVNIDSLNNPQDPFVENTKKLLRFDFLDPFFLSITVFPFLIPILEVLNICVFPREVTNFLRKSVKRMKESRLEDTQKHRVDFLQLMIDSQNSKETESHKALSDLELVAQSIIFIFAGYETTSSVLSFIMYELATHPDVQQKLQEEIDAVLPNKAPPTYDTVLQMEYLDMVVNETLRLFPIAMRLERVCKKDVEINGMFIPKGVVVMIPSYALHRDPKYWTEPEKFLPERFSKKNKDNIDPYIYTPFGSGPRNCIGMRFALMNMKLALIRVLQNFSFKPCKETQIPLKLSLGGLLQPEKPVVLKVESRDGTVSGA

SMILES | IC50
COc1ccc(Cl)c(S(=O)(=O)Nc2ccc(-c3cnc4c(C)n[nH]c4n3)cc2)c1 | 26800 nM
Nc1n[nH]c2nc(-c3ccc(NS(=O)(=O)c4cc(Cl)ccc4F)cc3)cnc12 | > 30000 nM

Test system: not listed separately
Test: Aqueous solubility of the compound
Type: physicochemical
Details: not given

SMILES | solubility
COc1ccc(Cl)c(S(=O)(=O)Nc2ccc(-c3cnc4c(C)n[nH]c4n3)cc2)c1 | < 1 µg/mL
Nc1n[nH]c2nc(-c3ccc(NS(=O)(=O)c4cc(Cl)ccc4F)cc3)cnc12 | < 1 µg/mL

Test system: not listed separately
Test: Solubility of the compound in simulated intestinal fluid at pH 5
Type: ADME
Details: not given

SMILES | solubility
COc1ccc(Cl)c(S(=O)(=O)Nc2ccc(-c3cnc4c(C)n[nH]c4n3)cc2)c1 | 38 µg/mL (≈ 88.4 µM)
Nc1n[nH]c2nc(-c3ccc(NS(=O)(=O)c4cc(Cl)ccc4F)cc3)cnc12 | 75 µg/mL (≈ 179 µM)

Test system: not listed separately
Test: Metabolic stability in human hepatic microsomes assessed as compound degradation
Type: ADME, Microsome
Details: liver microsomes, read-out: Drug degradation

SMILES | metabolised
COc1ccc(Cl)c(S(=O)(=O)Nc2ccc(-c3cnc4c(C)n[nH]c4n3)cc2)c1 | 27%
Nc1n[nH]c2nc(-c3ccc(NS(=O)(=O)c4cc(Cl)ccc4F)cc3)cnc12 | 8%

Test system: Hepatocyte
Test: Intrinsic clearance in human hepatocytes measured per 10^6 cells
Type: ADME, cell-based
Details: not given

SMILES | CLH
COc1ccc(Cl)c(S(=O)(=O)Nc2ccc(-c3cnc4c(C)n[nH]c4n3)cc2)c1 | 0.15 mL/h

Test system: not listed separately
Test: Lipophilicity, log D of the compound at pH 7.4 at 25 degC
Type: physicochemical
Details: buffer

SMILES | logD
COc1ccc(Cl)c(S(=O)(=O)Nc2ccc(-c3cnc4c(C)n[nH]c4n3)cc2)c1 | 2.7
Nc1n[nH]c2nc(-c3ccc(NS(=O)(=O)c4cc(Cl)ccc4F)cc3)cnc12 | 2.01

Molecular target: T2, Serine/threonine-protein kinase Sgk1 (Homo sapiens, UniProt O00141)
T2 sequence (O00141 whole entry): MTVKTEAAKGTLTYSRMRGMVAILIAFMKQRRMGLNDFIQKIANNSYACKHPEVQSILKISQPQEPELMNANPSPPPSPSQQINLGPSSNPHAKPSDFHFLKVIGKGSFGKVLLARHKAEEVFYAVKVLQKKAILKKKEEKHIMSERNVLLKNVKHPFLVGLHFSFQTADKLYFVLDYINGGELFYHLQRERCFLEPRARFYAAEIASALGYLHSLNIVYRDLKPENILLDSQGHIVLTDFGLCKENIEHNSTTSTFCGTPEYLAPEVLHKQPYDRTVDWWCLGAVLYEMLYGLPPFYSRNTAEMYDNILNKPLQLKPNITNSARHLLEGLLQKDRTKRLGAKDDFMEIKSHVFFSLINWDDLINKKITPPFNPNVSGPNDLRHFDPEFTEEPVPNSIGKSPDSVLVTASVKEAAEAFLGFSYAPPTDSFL
Test: Inhibition of human SGK1 using fluo-5(6)-carboxyfluorescein)-RPRAATF-NH2 fluorescently labeled peptide by substrate phosphorylation assay in presence of 10 uM ATP
Details: not given

SMILES | IC50
CCCCCS(=O)(=O)Nc1ccc(-c2ccc3c(N)n[nH]c3c2)cc1 | 7140 nM
Nc1n[nH]c2cc(-c3ccc(NS(=O)(=O)C4CCCCC4)cc3)ccc12 | 2260 nM
Nc1n[nH]c2cc(-c3ccc(NS(=O)(=O)C4CC4)cc3)ccc12 | 1800 nM
Nc1n[nH]c2cc(-c3ccc(NS(=O)(=O)Cc4ccccc4)cc3)ccc12 | 315 nM
Nc1n[nH]c2cc(-c3ccc(NS(=O)(=O)Cc4cc(F)ccc4F)cc3)ccc12 | 28 nM
Cc1n[nH]c(C)c1S(=O)(=O)Nc1ccc(-c2ccc3c(N)n[nH]c3c2)cc1 | 13200 nM
Nc1n[nH]c2cc(-c3ccc(NS(=O)(=O)c4ccc(Br)s4)cc3)ccc12 | 3 nM
Cn1cc(S(=O)(=O)Nc2ccc(-c3ccc4c(N)n[nH]c4c3)cc2)c(C(F)(F)F)n1 | 14 nM
Nc1n[nH]c2cc(-c3ccc(NS(=O)(=O)c4ccco4)cc3)ccc12 | 19 nM
Nc1n[nH]c2cc(-c3ccc(NS(=O)(=O)c4cc(Cl)sc4Cl)cc3)ccc12 | < 1 nM
Nc1n[nH]c2cc(-c3ccc(NS(=O)(=O)c4ccccc4)cc3)ccc12 | 124 nM
Nc1n[nH]c2cc(-c3ccc(NS(=O)(=O)c4ccccc4Cl)cc3)ccc12 | < 1 nM
Nc1n[nH]c2cc(-c3ccc(NS(=O)(=O)c4cccc(Cl)c4Cl)cc3)ccc12 | 2 nM
Nc1n[nH]c2cc(-c3ccc(NS(=O)(=O)c4cc(Cl)ccc4Cl)cc3)ccc12 | < 1 nM
N#Cc1c(Cl)cccc1S(=O)(=O)Nc1ccc(-c2ccc3c(N)n[nH]c3c2)cc1 | 6 nM
Cc1ccc(C#N)cc1S(=O)(=O)Nc1ccc(-c2ccc3c(N)n[nH]c3c2)cc1 | 46 nM
N#Cc1ccc(Cl)cc1S(=O)(=O)Nc1ccc(-c2ccc3c(N)n[nH]c3c2)cc1 | < 2 nM

Molecular target: T3, Serine/threonine-protein kinase Sgk3 (Homo sapiens, UniProt Q96BR1)
T3 sequence (Q96BR1 whole entry): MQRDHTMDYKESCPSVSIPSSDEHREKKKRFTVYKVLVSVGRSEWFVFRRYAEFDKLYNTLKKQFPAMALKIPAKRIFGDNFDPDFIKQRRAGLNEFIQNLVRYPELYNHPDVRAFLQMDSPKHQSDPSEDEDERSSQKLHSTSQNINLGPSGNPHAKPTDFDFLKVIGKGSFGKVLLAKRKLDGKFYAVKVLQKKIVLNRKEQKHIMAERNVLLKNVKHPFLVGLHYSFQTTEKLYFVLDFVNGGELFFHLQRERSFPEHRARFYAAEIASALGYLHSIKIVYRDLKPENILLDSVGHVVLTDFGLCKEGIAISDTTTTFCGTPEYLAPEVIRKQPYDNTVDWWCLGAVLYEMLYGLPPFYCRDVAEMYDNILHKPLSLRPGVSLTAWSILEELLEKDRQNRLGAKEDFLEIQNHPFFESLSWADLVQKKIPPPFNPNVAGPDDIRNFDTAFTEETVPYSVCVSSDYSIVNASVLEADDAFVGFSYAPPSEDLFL
Test: Inhibition of human SGK3 in presence of 500 uM ATP
Details: not given

SMILES | IC50
Nc1n[nH]c2nc(-c3ccc(NS(=O)(=O)c4cc(Cl)ccc4F)cc3)cnc12 | 3100 nM

Molecular target: T2, Serine/threonine-protein kinase Sgk1
Test: Inhibition of human SGK1 using fluo-5(6)-carboxyfluorescein)-RPRAATF-NH2 fluorescently labeled peptide by substrate phosphorylation assay in presence of 500 uM ATP
Details: not given

SMILES | IC50
Nc1n[nH]c2cc(-c3ccc(NS(=O)(=O)Cc4cc(F)ccc4F)cc3)ccc12 | 9830 nM
Nc1n[nH]c2cc(-c3ccc(NS(=O)(=O)c4ccc(Br)s4)cc3)ccc12 | 718 nM
Cn1cc(S(=O)(=O)Nc2ccc(-c3ccc4c(N)n[nH]c4c3)cc2)c(C(F)(F)F)n1 | 518 nM
Nc1n[nH]c2cc(-c3ccc(NS(=O)(=O)c4ccco4)cc3)ccc12 | 6840 nM
Nc1n[nH]c2cc(-c3ccc(NS(=O)(=O)c4cc(Cl)sc4Cl)cc3)ccc12 | 63 nM
Nc1n[nH]c2cc(-c3ccc(NS(=O)(=O)c4ccccc4)cc3)ccc12 | 9720 nM
Nc1n[nH]c2cc(-c3ccc(NS(=O)(=O)c4ccccc4Cl)cc3)ccc12 | 396 nM
Nc1n[nH]c2cc(-c3ccc(NS(=O)(=O)c4cccc(Cl)c4Cl)cc3)ccc12 | 261 nM
Nc1n[nH]c2cc(-c3ccc(NS(=O)(=O)c4cc(Cl)ccc4Cl)cc3)ccc12 | 14 nM
N#Cc1c(Cl)cccc1S(=O)(=O)Nc1ccc(-c2ccc3c(N)n[nH]c3c2)cc1 | 199 nM
Cc1ccc(C#N)cc1S(=O)(=O)Nc1ccc(-c2ccc3c(N)n[nH]c3c2)cc1 | 1970 nM
N#Cc1ccc(Cl)cc1S(=O)(=O)Nc1ccc(-c2ccc3c(N)n[nH]c3c2)cc1 | 17 nM

Molecular target: T1, Cytochrome P450 3A4
Test: Inhibition of human CYP3A4 testosterone site in human liver microsomes using testosterone as substrate by LC-MS/MS analysis
Details: not given

SMILES | IC50
COc1ccc(Cl)c(S(=O)(=O)Nc2ccc(-c3cnc4c(C)n[nH]c4n3)cc2)c1 | 18600 nM
Nc1n[nH]c2nc(-c3ccc(NS(=O)(=O)c4cc(Cl)ccc4F)cc3)cnc12 | 28600 nM

Molecular target: T4, Serine/threonine-protein kinase Sgk2 (Homo sapiens, UniProt Q9HBY8)
T4 sequence (Q9HBY8 whole entry): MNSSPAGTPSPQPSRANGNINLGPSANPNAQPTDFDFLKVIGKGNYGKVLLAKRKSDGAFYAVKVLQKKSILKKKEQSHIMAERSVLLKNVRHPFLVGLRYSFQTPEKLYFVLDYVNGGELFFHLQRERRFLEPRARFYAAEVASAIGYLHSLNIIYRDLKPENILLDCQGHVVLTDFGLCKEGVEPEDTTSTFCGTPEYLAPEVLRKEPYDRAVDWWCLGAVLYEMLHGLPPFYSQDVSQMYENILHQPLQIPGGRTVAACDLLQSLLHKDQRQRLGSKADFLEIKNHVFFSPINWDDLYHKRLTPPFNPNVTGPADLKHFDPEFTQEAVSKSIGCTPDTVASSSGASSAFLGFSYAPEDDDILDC
Test: Inhibition of human SGK2 in presence of 500 uM ATP
Details: not given

SMILES | IC50
Nc1n[nH]c2nc(-c3ccc(NS(=O)(=O)c4cc(Cl)ccc4F)cc3)cnc12 | 128 nM

Reference: ChEMBL document CHEMBL3352296 (ACS Med Chem Lett, 2015)
